These results are taken from ChEMBL document CHEMBL3751700, “Therapeutic Potential of GPR120 Agonists for the Treatment of Type 2 Diabetes” (ACS Med Chem Lett, 2015).

A short description of assay [1]: Agonist activity at human GPR120 long isoform transfected in CHO-K1 cells by beta-arrestin recruitment assay. The format is cell-based.
Assay [2] is described as follows: Agonist activity at human GPR120 long isoform transfected in HEK293 cells assessed as calcium flux by FLIPR assay. The format is cell-based.
Assay [3] in a line: Agonist activity at human GPR120 short isoform transfected in CHO-K1 cells by beta-arrestin recruitment assay. The format is cell-based.
Assay [4] has as its system Mus musculus. Description: Antidiabetic activity in DIO mouse assessed as glucose level at 10 mg/kg measured from -30 to 90 mins by oral glucose tolerance test. The format is functional.
The subject of assay [5] is Mus musculus. Description: Antidiabetic activity in C57bl6 mouse assessed as glucose level at 3 mg/kg by intraperitoneal glucose tolerance test. The format is functional.
In assay [6] the test system is Mus musculus. Description: Antidiabetic activity in C57bl6 mouse assessed as glucose level at 3 mg/kg by oral glucose tolerance test. The format is functional.
The test system of assay [7] is Mus musculus. Briefly: Antidiabetic activity in C57bl6 mouse assessed as glucose level at 10 mg/kg by intraperitoneal glucose tolerance test. The format is functional.
In assay [8] the test system is Mus musculus. Briefly: Antidiabetic activity in C57bl6 mouse assessed as glucose level at 30 mg/kg by intraperitoneal glucose tolerance test. The format is functional.
A short description of assay [9]: Agonist activity at human GPR120 short isoform transfected in HEK293 cells assessed as calcium flux by FLIPR assay. The format is cell-based.

For the compound `Cc1ccccc1-c1snc(Cl)c1COc1c(F)cc(CCC(=O)O)cc1F`, the concentration for a half-maximal effect (EC50) in assay [1] is 322 nM; in [2], 344 nM; in assay [3], 990 nM.
`O=C(O)CCc1cc(F)c(OCc2c(C3CCCC3)nsc2C(F)(F)F)c(F)c1`: the Activity is reported as -0.52% in the assay with Mus musculus [4], -14% with Mus musculus [5] and -37% in the assay with Mus musculus [6]. In addition, the EC50 in [1] was determined as 278 nM; in assay [2], 37 nM; in assay [3], 139 nM.
As for `Cc1c(CCC(=O)O)ccc(OCc2sc(F)cc2-c2ccc(Cl)cc2)c1C`, the EC50 in [2] was found to be 49 nM; in assay [3], 83 nM.
On to `Cc1c(CCC(=O)O)ccc(OCc2c(-c3ccc(Cl)cc3)nsc2C(F)(F)F)c1C`, for which the EC50 in assay [1] turned out to be 141 nM; in assay [2], 155 nM; in assay [3], 100 nM. For the same compound, the figures for the Activity in the assay with Mus musculus [5], in the assay with Mus musculus [7] and with Mus musculus [8] were -34%, -61% and -53%, respectively.
Turning to `CCc1ccc(-c2cc(F)sc2COc2ccc(CCC(=O)O)c(C)c2C)cc1`, the figures for the EC50 in assay [1], in assay [2] and in assay [3] were 218 nM, 24 nM and 205 nM, respectively.
With `OCCCc1cc(F)c(OCc2c(-c3ccc(Cl)cc3F)nsc2C(F)(F)F)c(F)c1`, the values for the EC50 in [9] and in [3] were 139 nM and 80 nM, respectively.
